In patent publication US9284315B2, “Three-ring PI3K and/or mTOR inhibitor” (XUANZHU PHARMA CO., LTD., priority 2011, dated 2016):
Several values for one entry are separate records, joined by “and”; a condition that tells them apart may be missing. Identical values can stand only once.

Assays:
PI3Kα = PI3Kα (Homo sapiens (Human), UniProt P42336); test: PI3K inhibitory activity, Method 1 activity test; assay type: biochemical; conditions: PIP2 50 μM, ATP 25 μM
Experimental: Determination of the inhibitory activity of PI3K
(§1) 1. Preparation of test reagents
(1) 1× kinase buffer (50 mM HEPES, pH 7.5, 3 mM MgCl2, 1 mM EGTA, 100 mM NaCl, 0.03% CHAPS, 2 mM DTT);
(2) 4× kinase solution (added PI3K a kinase to 1× kinase buffer to provide 4× kinase solution with a final concentration of 1.65 nM);
(3) 2× substrate solution (added the substrates of PIP2 and ATP into 1× kinase buffer to provide 2× substrate solution with PIP2 final concentration of 50 μM and ATP final concentration of 25 μM);
(4) 4× test substance solutions (100× test substance solutions with different concentration gradients were prepared using 100% DMSO, and diluted 25-fold with 1× kinase buffer to give 4× test substance solutions with different concentration gradients);
(5) Invitrogen's activity test kit with the test solution was kept stand to room temperature.
(§2) 2. 2.5 μL of 4× test solution was added to a 384-well plate in parallel;
(§3) 3. added […] of 4× kinase solution and incubated for 10 min;
4. then added 5 μL of 2× solutions of PIP2 and ATP substrates and incubated for 1 h at room temperature;
5. finally, added 10 μL of test solution to quench the reaction, and read after 15 min;
(§4) 6. IC50 value was obtained via curve fitting. Inhibition rate (%)=(sample value−minimum)/(maximum−minimum)×100
Maximum refers to the readings of control wells without enzyme, minimum refers to the readings of DMSO control wells.
(§5) IC50 value was obtained via curve fitting using a soft of Graphpad 5.0.

mTOR = mTOR (Homo sapiens (Human), UniProt P42345); test: mTOR inhibitory activity, Method 1 activity test; assay type: biochemical; conditions: 4EBP1 50 nM, ATP 10.8 μM
Experimental: Determination of the Inhibitory Activity of mTOR
as §1
(1) 1× kinase buffer (50 mM HEPES, pH 7.5, 10 mM MgCl2, 1 mM EGTA, 3 mM MnCl, 0.01% Tween-20, 2 mM DTT);
(2) 4× kinase solution (added mTOR kinase to 1× kinase buffer to provide 4× kinase solution with a final concentration of 2.5 nM);
(3) 2× substrate solution (added the substrates of 4EBP1 and ATP into 1× kinase buffer to provide 2× substrate solution with 4EBP1 final concentration of 50 nM and ATP final concentration of 10.8 μM);
(4) 4× test substance solutions (100× test substance solutions with different concentration gradients were prepared using 100% DMSO, and diluted 25-fold with 1× kinase buffer to give 4× test substance solutions with different concentration gradients)
(5) preparation of test solution (test solution containing EDTA and 4EBP1 phosphorylated antibody was prepared using activity test kit with assay buffer, the final concentration of EDTA was 8 mM, and the final concentration of 4EBP1 phosphorylated antibody was 2 nM)
as §2, §3
4. then added 5 μL of 2× solutions of 4EBP1 and ATP substrates and incubated for 1 h at room temperature;
5. finally, added 10 μL of test solution to quench the reaction, and read after 60 min;
as §4
Minimum refers to the readings of control wells without enzyme, maximum refers to the readings of DMSO control wells.
as §5

U87MG = test: Cell viability assay by XTT method, U87MG; assay type: cell-based; conditions: Homo sapiens, U-87 MG
Experimental: (§6) 1. Preparation of Reagents and Compounds
(§7) 2) Preparation of XTT test working solution:
(§8) 100 mg of tetrazolium salt (XTT) powder was weighed and dissolved in dark in 300 mL of phenol red-free serum-free RPMI1640 medium heated to 50° C., filtered and subpackaged, used immediately or within a week. All process should be conducted in dark.
(§9) 3) Preparation of test compounds
(§10) preparation of stock solutions of the test substances: the powder of test substances was dissolved in DMSO in a concentration of 10 mM.
(§11) preparation of gradiently diluted stock solutions of test substances: First, 10 mM of the stock solutions of test substances were diluted serially in 4-fold with DMSO to 10 concentrations. 2 μL of DMSO-diluted solution for each compound was taken and added to 998 μL of culture medium containing 10% fetal bovine serum (FBS). The highest concentration of the test substances was 20 μM, the concentration of DMSO was 0.2%, and there were 10 concentration gradients in total.
(§12) 1) Preparation of cell suspension
(§13) The culture medium was discarded from the flask, and the cells were washed twice with PBS. Added trypsinase to digest the cell and then collected by centrifugation, resuspended with a medium containing 10% FBS, counted and adjusted to an appropriate concentration (cell viability must be greater than 90%). The cell concentration was […].
(§14) 2) The cell suspension was added to 96-well plates, each well 100 μL.
(§15) 3) Incubated in a cell incubator overnight at 37° C., 5% CO2.
(§16) Added compound diluted 2-fold to the cell culture plates, three repeated in total, 100 μL well.
(§17) 5. Cell Viability Assay by XTT Method
(§18) Discarded the culture medium, added XTT test working liquid in an amount of 150 μL well, and kept in a cell incubator at 37° C., 5% CO2 for 2 h, then placed into a microplate reader and read the absorbance at 450 nm.
(§19) 1) The percentage of inhibition was calculated using the following formula: Inhibition rate (%)=(reading(solvent)−reading(compound))/reading(solvent)−reading(positive control))×100
(§20) 2) The data was entered into GraphPad Prism 5.0 and plotted to obtain the curve and IC50.

SKOV-3 = test: Cell viability assay by XTT method, SKOV-3; assay type: cell-based; conditions: Homo sapiens, SK-OV-3
Experimental: as §6, §7, §8, §9, §10, §11, §12, §13, §14, §15, §16, §17, §18, §19, §20

[1] = In vivo pharmacokinetics in rats, gavage (PO); conditions: male, SD, rat, plasma, 4 mg/kg
[2] = In vivo pharmacokinetics in rats, intravenous bolus injection (IV); conditions: 2 mg/kg; for AUC / half-life: male, SD, rat, plasma, iv; for Cl_obs / Vss_obs: rats, IV
SD rats = test: Repeated-dose toxicity test in rats; assay type: in vivo; conditions: 14 days; for hair loss (animals affected) / lassitude (animals affected) / loose stools (animals affected): gavage once daily, 20 rats
Experimental: The test substances were suspended in 0.5% methylcellulose solution to prepare suspensions with a concentration of 0.5 mg/mL, 1.5 mg/mL and 3 mg/mL.
Animals: SD rats, 6-8 weeks old, SPF grade, purchased from Beijing Vital River Laboratory Animal Technology Co., Ltd., licensed […] No: SCXK (Beijing) 2006-0009.
The test substances were administrated as a suspension via gavage, and administrating volume was 10 mL/kg. 0.5% methyl cellulose solution was used in the solvent group, and the administrating volume was 10 mL/kg, administered once daily for consecutive 14 days. Animals were observed daily appearance and general behavior changes.

Chain of PI3Kα (P42336 whole entry): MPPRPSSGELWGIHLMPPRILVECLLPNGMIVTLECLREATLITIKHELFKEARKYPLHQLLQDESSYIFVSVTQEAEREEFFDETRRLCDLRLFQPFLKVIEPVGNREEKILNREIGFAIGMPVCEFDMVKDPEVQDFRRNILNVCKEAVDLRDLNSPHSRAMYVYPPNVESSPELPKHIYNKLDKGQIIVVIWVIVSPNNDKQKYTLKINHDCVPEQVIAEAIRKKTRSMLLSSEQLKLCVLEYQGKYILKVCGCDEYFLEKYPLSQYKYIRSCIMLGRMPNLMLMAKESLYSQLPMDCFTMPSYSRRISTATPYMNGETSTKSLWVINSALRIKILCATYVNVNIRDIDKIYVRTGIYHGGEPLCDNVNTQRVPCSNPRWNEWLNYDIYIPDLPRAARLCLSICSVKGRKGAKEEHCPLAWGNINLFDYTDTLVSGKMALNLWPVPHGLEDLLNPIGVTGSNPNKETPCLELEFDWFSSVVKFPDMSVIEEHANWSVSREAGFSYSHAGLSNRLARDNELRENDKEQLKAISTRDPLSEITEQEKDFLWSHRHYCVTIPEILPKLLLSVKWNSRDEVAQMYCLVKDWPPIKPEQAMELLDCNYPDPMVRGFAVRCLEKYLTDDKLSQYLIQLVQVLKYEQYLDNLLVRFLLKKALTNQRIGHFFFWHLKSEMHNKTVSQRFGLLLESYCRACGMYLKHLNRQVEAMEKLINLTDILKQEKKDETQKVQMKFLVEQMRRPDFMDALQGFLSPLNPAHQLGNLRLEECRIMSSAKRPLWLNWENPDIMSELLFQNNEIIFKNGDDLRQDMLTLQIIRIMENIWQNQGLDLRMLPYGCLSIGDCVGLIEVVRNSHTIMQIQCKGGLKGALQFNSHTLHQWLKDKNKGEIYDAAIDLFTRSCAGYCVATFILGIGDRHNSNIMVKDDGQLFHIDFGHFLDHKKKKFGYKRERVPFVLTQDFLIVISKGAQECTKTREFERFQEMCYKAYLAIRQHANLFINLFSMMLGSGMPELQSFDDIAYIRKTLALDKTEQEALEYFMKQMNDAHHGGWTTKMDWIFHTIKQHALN
Chain of PI3Kα (P27986 whole entry partner): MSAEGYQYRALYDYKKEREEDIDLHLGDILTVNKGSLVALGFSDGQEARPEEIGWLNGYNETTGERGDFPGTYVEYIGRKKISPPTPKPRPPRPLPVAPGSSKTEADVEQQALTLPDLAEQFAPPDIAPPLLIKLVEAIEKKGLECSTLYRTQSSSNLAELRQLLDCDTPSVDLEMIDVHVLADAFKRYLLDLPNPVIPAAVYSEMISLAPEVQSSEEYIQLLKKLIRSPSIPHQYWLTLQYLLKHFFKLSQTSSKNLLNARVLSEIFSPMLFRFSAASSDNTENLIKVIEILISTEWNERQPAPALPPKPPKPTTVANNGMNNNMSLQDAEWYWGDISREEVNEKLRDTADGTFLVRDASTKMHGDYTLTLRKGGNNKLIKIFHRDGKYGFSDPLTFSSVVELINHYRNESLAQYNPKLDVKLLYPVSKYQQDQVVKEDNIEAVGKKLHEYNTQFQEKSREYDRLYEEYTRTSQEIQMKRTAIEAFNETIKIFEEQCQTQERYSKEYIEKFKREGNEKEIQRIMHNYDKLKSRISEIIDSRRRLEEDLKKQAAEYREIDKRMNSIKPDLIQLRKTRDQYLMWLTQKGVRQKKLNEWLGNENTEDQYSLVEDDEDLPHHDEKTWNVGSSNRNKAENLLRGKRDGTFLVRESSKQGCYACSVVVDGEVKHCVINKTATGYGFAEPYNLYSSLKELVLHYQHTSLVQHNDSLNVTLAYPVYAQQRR

SMILES	IC50 (PI3Kα) [µM]	IC50 (mTOR) [µM]	IC50 (U87MG) [µM]	IC50 (SKOV-3) [µM]	AUC [1] [ng·h/mL]	Cmax [1] [ng/mL]	bioavailability [1] [%]	AUC [2] [ng·h/mL]	half-life [2] [h]	Cl_obs [2] [mL/min/kg]	Vss_obs [2] [L/kg]	further results
COc1ccc(-c2ccc3ncc4c(c3n2)N(c2cccc(C(F)(F)F)c2)C(=O)N(C)C4)cn1 [Compound 2]	0.0884	0.0543	–	–	–	–	–	–	–	–	–	–
Cn1c(=O)n(-c2ccc(C(C)(C)C#N)cc2)c2c3cc(-c4cnc5ccccc5c4)ccc3ncc21 [BEZ-235, reference compound]	–	–	–	–	2180	229	77.4	1440	3.19	23	5.93	hair loss (animals affected) (SD rats; high dose 30 mg/kg/day): three and 3/20; lassitude (animals affected) (SD rats; high dose 30 mg/kg/day): 0/20; loose stools (animals affected) (SD rats; high dose 30 mg/kg/day): fifteen and 15/20; hair loss (animals affected) (SD rats; low dose 5 mg/kg/day): 0/20; lassitude (animals affected) (SD rats; low dose 5 mg/kg/day): 0/20; loose stools (animals affected) (SD rats; low dose 5 mg/kg/day): six and 6/20; hair loss (animals affected) (SD rats; middle dose 15 mg/kg/day): 0/20; lassitude (animals affected) (SD rats; middle dose 15 mg/kg/day): 0/20; loose stools (animals affected) (SD rats; middle dose 15 mg/kg/day): seven and 7/20; Tmax [1]: 2.83 h; half-life [1]: 4.08 h
CSc1ccc(-c2ccc3ncc4c(c3n2)N(c2cccc(C(F)(F)F)c2)C(=O)N(C)C4)cn1 [Compound 8]	0.26	0.0765	–	–	–	–	–	–	–	–	–	–
CN1CCN(c2ccc(-c3ccc4ncc5c(c4n3)N(c3cccc(C(F)(F)F)c3)C(=O)N(C)C5)cn2)CC1 [Compound 11]	0.496	0.0312	–	–	–	–	–	–	–	–	–	–
CN1Cc2cnc3ccc(-c4cnc5ccccc5c4)nc3c2N(c2ccc(C(C)(C)C#N)cc2)C1=O [Compound 52]	0.154	0.0665	0.436	0.467	–	–	–	–	–	–	–	–
COc1ccc(-c2ccc3ncc4c(c3n2)N(c2ccc(C(C)(C)C#N)cc2)C(=O)N(C)C4)cn1 [Compound 30, 2-(4-(9-(6-methoxypyridin-3-yl)-3-methyl-2-oxo-3,4-dihydropyrimido[5,4-c][1,5]naphthyridin-1(2H)-yl)phenyl)-2-methylpropionitrile]	–	–	0.499	0.349	–	–	–	–	–	–	–	–
CN1Cc2cnc3ccc(-c4ccc(-n5cccn5)nc4)nc3c2N(c2cccc(C(F)(F)F)c2)C1=O [Compound 9]	0.873	0.0437	–	–	–	–	–	–	–	–	–	–
COc1ccc(-c2ccc3ncc4c(c3c2)n(-c2ccc(N3CCNCC3)c(C(F)(F)F)c2)c(=O)n4C)cn1 [BGT-226, reference compound]	0.0419	0.00199	–	–	852	61.1	28	1520	4.8	21.7	8.72	Tmax [1]: 6 h
CN1Cc2cnc3ccc(-c4cnc5ccccc5c4)nc3c2N(c2ccc(N3CCNCC3)c(C(F)(F)F)c2)C1=O [Compound 80]	–	–	0.279	0.542	–	–	–	–	–	–	–	–
CN1Cc2cnc3ccc(-c4ccc(C#N)nc4)nc3c2N(c2cccc(C(F)(F)F)c2)C1=O [Compound 6]	0.0338	0.024	–	–	–	–	–	–	–	–	–	–

More lines, main results first:

IC50 (PI3Kα) [µM]	IC50 (mTOR) [µM]	IC50 (U87MG) [µM]	IC50 (SKOV-3) [µM]	AUC [1] [ng·h/mL]	Cmax [1] [ng/mL]	bioavailability [1] [%]	AUC [2] [ng·h/mL]	half-life [2] [h]	Cl_obs [2] [mL/min/kg]	Vss_obs [2] [L/kg]	SMILES	further results
0.0293	0.0387	0.901	0.895	63.4	34.9	11.6	275	0.47	124	4.45	CC(=O)Nc1ccc(-c2ccc3ncc4c(c3n2)N(c2cccc(C(F)(F)F)c2)C(=O)N(C)C4)cn1 [Compound 7, N-(5-(3-methyl-2-oxo-1-(3-(trifluoromethyl)phenyl)-1,2,3,4-tetrahydropyrimido[5,4-c][1,5]naphthyridin-9-yl)pyridin-2-yl)acetamide]	Tmax [1]: 0.5 h; half-life [1]: 1.7 h
0.0033	0.0085	0.437	0.89	402	147	26.3	735	2.08	47.3	2.97	CN1Cc2cnc3ccc(-c4cnc(N)nc4)nc3c2N(c2cccc(C(F)(F)F)c2)C1=O [Compound 14, 9-(2-aminopyrimidin-5-yl)-3-methyl-1-(3-(trifluoromethyl)phenyl)-3,4-dihydropyrimido[5,4-c][1,5]naphthyridin-1(2H)-one]	Tmax [1]: 0.5 h; half-life [1]: 1.39 h
0.0104	0.00886	0.0847	0.155	1380	198	40.4	1700	6.48	19	5.6	CN1Cc2cnc3ccc(-c4ccc(N)nc4)nc3c2N(c2cccc(C(F)(F)F)c2)C1=O [Compound 3]	hair loss (animals affected) (SD rats; high dose 30 mg/kg/day): one and 1/20; lassitude (animals affected) (SD rats; high dose 30 mg/kg/day): four and 4/20; loose stools (animals affected) (SD rats; high dose 30 mg/kg/day): one and 1/20; abnormal vital signs (SD rats; low dose 5 mg/kg/day): no animals with abnormal vital signs; hair loss (animals affected) (SD rats; low dose 5 mg/kg/day): 0/20; lassitude (animals affected) (SD rats; low dose 5 mg/kg/day): 0/20; loose stools (animals affected) (SD rats; low dose 5 mg/kg/day): 0/20; hair loss (animals affected) (SD rats; middle dose 15 mg/kg/day): 0/20; lassitude (animals affected) (SD rats; middle dose 15 mg/kg/day): 0/20; loose stools (animals affected) (SD rats; middle dose 15 mg/kg/day): one and 1/20; half-life [1]: 5.33 h
0.021	0.0303	–	–	–	–	–	–	–	–	–	COc1ncc(-c2ccc3ncc4c(c3n2)N(c2cccc(C(F)(F)F)c2)C(=O)N(C)C4)cn1 [Compound 13]	–
0.0102	0.0175	0.275	0.551	–	–	–	357	0.72	92.8	5.28	CN1Cc2cnc3ccc(-c4cnc5[nH]ccc5c4)nc3c2N(c2cccc(C(F)(F)F)c2)C1=O [Compound 22, 3-methyl-9-(1H-pyrrolo[2,3-b]pyridin-5-yl)-1-(3-(trifluoromethyl)phenyl)-3,4-dihydropyrimido[5,4-c][1,5]naphthyridin-1(2H)-one]	–
